Measured values: the supplement of paper PMC10307832

What was measured:
Assay in all cases: relative viability (nuclei count vs DMSO), 5 days (fraction); higher = more cells survive
[1] = compound: C1=CC=C2C(=C1)N=C(S2)C(C#N)C3=NC(=NC=C3)NCCC4=CN=CC=C4 + Cc1cc(Nc2cc(N3CCN(C)CC3)nc(Sc3ccc(NC(=O)C4CC4)cc3)n2)n[nH]1 [Tozasertib] (partner 0.1 µM)
Method in brief: (§1)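 Medians of duplicate plates are given as relative viability. That measure is the nuclei count in treated wells divided by the count in vehicle wells. Counts were taken on 4× images of lung cancer cell lines in 1536-well plates, 5 days after pin-tool dosing the day after seeding with one drug alone or a fixed anchor-drug dose plus five library-drug doses (not always all listed) in √10 steps.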

[2] = compound: C1=CC=C2C(=C1)N=C(S2)C(C#N)C3=NC(=NC=C3)NCCC4=CN=CC=C4 + Nc1ncn([C@H]2C[C@H](O)[C@@H](CO)O2)c(=O)n1 [Decitabine] (partner 2 µM)
Method in brief: as §1

NVP-TAE684 + Decitabine = compound: COc1cc(N2CCC(N3CCN(C)CC3)CC2)ccc1Nc1ncc(Cl)c(Nc2ccccc2S(=O)(=O)C(C)C)n1 [NVP-TAE684] + Nc1ncn([C@H]2C[C@H](O)[C@@H](CO)O2)c(=O)n1 [Decitabine] (partner 2 µM)
Method in brief: as §1

Vandetanib + Trametinib = compound: COc1cc2/c(=N/c3ccc(Br)cc3F)nc[nH]c2cc1OCC1CCN(C)CC1 [Vandetanib] + CC(=O)Nc1cccc(-n2c(=O)n(C3CC3)c(=O)c3c(Nc4ccc(I)cc4F)n(C)c(=O)c(C)c32)c1 [Trametinib] (partner 0.02 µM)
Method in brief: as §1

EPLC-272H
relative viability ([1]; first compound 0.005 µM): 0.168 | relative viability ([1]; first compound 0.01581 µM): 0.225 | relative viability ([1]; first compound 0.05 µM): 0.253 | relative viability ([1]; first compound 0.1581 µM): 0.236 | relative viability ([1]; first compound 0.5 µM): 0.388 | relative viability ([2]; first compound 0.005 µM): 0.501 | relative viability ([2]; first compound 0.01581 µM): 0.337 | relative viability ([2]; first compound 0.05 µM): 0.36 | relative viability ([2]; first compound 0.1581 µM): 0.385 | relative viability ([2]; first compound 0.5 µM): 0.309 | relative viability (NVP-TAE684 + Decitabine; first compound 0.2 µM): 0.326 | relative viability (NVP-TAE684 + Decitabine; first compound 0.6325 µM): 0.357 | relative viability (NVP-TAE684 + Decitabine; first compound 2 µM): 0.299 | relative viability (Vandetanib + Trametinib; first compound 0.02 µM): 0.303 | relative viability (Vandetanib + Trametinib; first compound 0.06325 µM): 0.242 | relative viability (Vandetanib + Trametinib; first compound 0.2 µM): 0.289 | relative viability (Vandetanib + Trametinib; first compound 0.6325 µM): 0.293 | relative viability (Vandetanib + Trametinib; first compound 2 µM): 0.255

A-427
relative viability ([1]; first compound 0.005 µM): 0.203 | relative viability ([1]; first compound 0.01581 µM): 0.181 | relative viability ([1]; first compound 0.05 µM): 0.222 | relative viability ([1]; first compound 0.1581 µM): 0.227 | relative viability ([1]; first compound 0.5 µM): 0.203 | relative viability ([2]; first compound 0.005 µM): 0.599 | relative viability ([2]; first compound 0.01581 µM): 0.495 | relative viability ([2]; first compound 0.05 µM): 0.568 | relative viability ([2]; first compound 0.1581 µM): 0.555 | relative viability ([2]; first compound 0.5 µM): 0.574 | relative viability (NVP-TAE684 + Decitabine; first compound 0.2 µM): 0.58 | relative viability (NVP-TAE684 + Decitabine; first compound 0.6325 µM): 0.53 | relative viability (NVP-TAE684 + Decitabine; first compound 2 µM): 0.44 | relative viability (Vandetanib + Trametinib; first compound 0.02 µM): 0.734 | relative viability (Vandetanib + Trametinib; first compound 0.06325 µM): 0.662 | relative viability (Vandetanib + Trametinib; first compound 0.2 µM): 0.745 | relative viability (Vandetanib + Trametinib; first compound 0.6325 µM): 0.737 | relative viability (Vandetanib + Trametinib; first compound 2 µM): 0.742

NCI-H1755
relative viability ([1]; first compound 0.005 µM): 0.448 | relative viability ([1]; first compound 0.01581 µM): 0.544 | relative viability ([1]; first compound 0.05 µM): 0.563 | relative viability ([1]; first compound 0.1581 µM): 0.598 | relative viability ([1]; first compound 0.5 µM): 0.584 | relative viability ([2]; first compound 0.005 µM): 0.673 | relative viability ([2]; first compound 0.01581 µM): 0.789 | relative viability ([2]; first compound 0.05 µM): 0.683 | relative viability ([2]; first compound 0.1581 µM): 0.75 | relative viability ([2]; first compound 0.5 µM): 0.7 | relative viability (NVP-TAE684 + Decitabine; first compound 0.2 µM): 0.715 | relative viability (NVP-TAE684 + Decitabine; first compound 0.6325 µM): 0.756 | relative viability (NVP-TAE684 + Decitabine; first compound 2 µM): 0.667 | relative viability (Vandetanib + Trametinib; first compound 0.02 µM): 0.749 | relative viability (Vandetanib + Trametinib; first compound 0.06325 µM): 0.731 | relative viability (Vandetanib + Trametinib; first compound 0.2 µM): 0.794 | relative viability (Vandetanib + Trametinib; first compound 0.6325 µM): 0.749 | relative viability (Vandetanib + Trametinib; first compound 2 µM): 0.751

NCI-H838
relative viability ([1]; first compound 0.005 µM): 0.28 | relative viability ([1]; first compound 0.01581 µM): 0.289 | relative viability ([1]; first compound 0.05 µM): 0.243 | relative viability ([1]; first compound 0.1581 µM): 0.282 | relative viability ([1]; first compound 0.5 µM): 0.223 | relative viability ([2]; first compound 0.005 µM): 0.435 | relative viability ([2]; first compound 0.01581 µM): 0.461 | relative viability ([2]; first compound 0.05 µM): 0.425 | relative viability ([2]; first compound 0.1581 µM): 0.47 | relative viability ([2]; first compound 0.5 µM): 0.445 | relative viability (NVP-TAE684 + Decitabine; first compound 0.2 µM): 0.456 | relative viability (NVP-TAE684 + Decitabine; first compound 0.6325 µM): 0.464 | relative viability (NVP-TAE684 + Decitabine; first compound 2 µM): 0.314 | relative viability (Vandetanib + Trametinib; first compound 0.02 µM): 0.528 | relative viability (Vandetanib + Trametinib; first compound 0.06325 µM): 0.463 | relative viability (Vandetanib + Trametinib; first compound 0.2 µM): 0.539 | relative viability (Vandetanib + Trametinib; first compound 0.6325 µM): 0.484 | relative viability (Vandetanib + Trametinib; first compound 2 µM): 0.533

ABC-1
relative viability ([1]; first compound 0.005 µM): 0.202 | relative viability ([1]; first compound 0.01581 µM): 0.196 | relative viability ([1]; first compound 0.05 µM): 0.169 | relative viability ([1]; first compound 0.1581 µM): 0.152 | relative viability ([1]; first compound 0.5 µM): 0.184 | relative viability ([2]; first compound 0.005 µM): 0.915 | relative viability ([2]; first compound 0.05 µM): 0.906 | relative viability ([2]; first compound 0.1581 µM): 1.15 | relative viability ([2]; first compound 0.5 µM): 1.13 | relative viability (NVP-TAE684 + Decitabine; first compound 0.2 µM): 1.14 | relative viability (NVP-TAE684 + Decitabine; first compound 0.6325 µM): 0.938 | relative viability (NVP-TAE684 + Decitabine; first compound 2 µM): 0.679

NCI-H2228
relative viability ([1]; first compound 0.005 µM): 0.251 | relative viability ([1]; first compound 0.01581 µM): 0.232 | relative viability ([1]; first compound 0.05 µM): 0.211 | relative viability ([1]; first compound 0.1581 µM): 0.187 | relative viability ([1]; first compound 0.5 µM): 0.226 | relative viability (Vandetanib + Trametinib; first compound 0.02 µM): 0.511 | relative viability (Vandetanib + Trametinib; first compound 0.06325 µM): 0.386 | relative viability (Vandetanib + Trametinib; first compound 0.2 µM): 0.561 | relative viability (Vandetanib + Trametinib; first compound 0.6325 µM): 0.64 | relative viability (Vandetanib + Trametinib; first compound 2 µM): 0.28

NCI-H1793
relative viability ([1]; first compound 0.005 µM): 0.262 | relative viability ([1]; first compound 0.01581 µM): 0.334 | relative viability ([1]; first compound 0.05 µM): 0.264 | relative viability ([1]; first compound 0.1581 µM): 0.32 | relative viability ([1]; first compound 0.5 µM): 0.317 | relative viability ([2]; first compound 0.01581 µM): 0.521 | relative viability ([2]; first compound 0.05 µM): 0.424 | relative viability ([2]; first compound 0.1581 µM): 0.538 | relative viability ([2]; first compound 0.5 µM): 0.465 | relative viability (NVP-TAE684 + Decitabine; first compound 0.2 µM): 0.459 | relative viability (NVP-TAE684 + Decitabine; first compound 0.6325 µM): 0.468 | relative viability (NVP-TAE684 + Decitabine; first compound 2 µM): 0.361 | relative viability (Vandetanib + Trametinib; first compound 0.02 µM): 0.479 | relative viability (Vandetanib + Trametinib; first compound 0.06325 µM): 0.362 | relative viability (Vandetanib + Trametinib; first compound 0.2 µM): 0.47 | relative viability (Vandetanib + Trametinib; first compound 0.6325 µM): 0.418 | relative viability (Vandetanib + Trametinib; first compound 2 µM): 0.408

NCI-H1623
relative viability ([1]; first compound 0.005 µM): 0.55 | relative viability ([1]; first compound 0.01581 µM): 0.398 | relative viability ([1]; first compound 0.05 µM): 0.395 | relative viability ([1]; first compound 0.1581 µM): 0.462 | relative viability ([1]; first compound 0.5 µM): 0.351

CAL-12T
relative viability ([1]; first compound 0.005 µM): 0.222 | relative viability ([1]; first compound 0.01581 µM): 0.336 | relative viability ([1]; first compound 0.05 µM): 0.275 | relative viability ([1]; first compound 0.1581 µM): 0.388 | relative viability ([1]; first compound 0.5 µM): 0.197 | relative viability (Vandetanib + Trametinib; first compound 0.02 µM): 0.342 | relative viability (Vandetanib + Trametinib; first compound 0.06325 µM): 0.3 | relative viability (Vandetanib + Trametinib; first compound 0.2 µM): 0.316 | relative viability (Vandetanib + Trametinib; first compound 0.6325 µM): 0.242 | relative viability (Vandetanib + Trametinib; first compound 2 µM): 0.305
